pIC50: −log10 of the molar value.

Data on eleven molecules can be found in ChEMBL document CHEMBL1139785, “Synthesis of novel HIV protease inhibitors (PI) with activity against PI-resistant virus” (Bioorg Med Chem Lett, 2007).

For experiment [1], the system named is Human immunodeficiency virus 1. In words: Antiviral activity against HIV1 NL4-3 in MT4 cells by viral spread assay. The format is functional. The following applies: Human immunodeficiency virus 1, NL4-3, MT4; read-out: CIC95.
A further experiment addresses Protease (Human immunodeficiency virus 1, UniProt Q9YQ12). The experiment in a line: Inhibition of wild type HIV1 NL4-3 protease.
The test system of experiment [2] is Human immunodeficiency virus 1. The experiment in a line: Antiviral activity against HIV1 with protease K60C mutant in MT4 cells by viral spread assay. To be noted: Human immunodeficiency virus 1, MT4; read-out: CIC95.
The nature of experiment [3]: Inhibition of HIV1 NL4-3 protease V18C mutant. Also on record: species or system Human immunodeficiency virus 1.
Experiment [4] in a line: Inhibition of HIV1 NL4-3 protease K60C mutant. Also on record: species or system Human immunodeficiency virus 1.
Experiment [5] relates to Human immunodeficiency virus 1. The experiment in a line: Antiviral activity against HIV1 with protease V18C mutant in MT4 cells by viral spread assay. To be noted: Human immunodeficiency virus 1, MT4; read-out: CIC95.

Protease, sequence (Q9YQ12 whole entry): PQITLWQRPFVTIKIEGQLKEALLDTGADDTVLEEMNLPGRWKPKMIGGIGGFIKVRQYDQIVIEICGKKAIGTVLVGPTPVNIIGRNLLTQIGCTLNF

As to `Cc1cccc(C)c1CNC(=O)[C@@H]1CCN1C(=O)[C@@H](O)C[C@@H](Cc1ccccc1)C(=O)N[C@H]1c2ccccc2OC[C@H]1O`, the IC95 in experiment [1] was found to be 1000 nM. On Protease, this molecule gave a pIC50 of 7.05.

On to `Cc1cccc(C)c1CNC(=O)[C@@H]1CCCN1C(=O)[C@@H](O)C[C@@H](Cc1ccccc1)C(=O)N[C@H]1c2ccccc2OC[C@H]1O`, for which the IC95 in experiment [1] came to 1000 nM. The molecule also showed a pIC50 on Protease of 7.85.

With `Cc1cccc(C)c1CNC(=O)[C@H]1N(C(=O)[C@@H](O)C[C@@H](Cc2ccccc2)C(=O)N[C@H]2c3ccccc3OC[C@H]2O)COC1(C)C`, the IC95 in experiment [2] came to 500 nM; in experiment [1] it was 15 nM; in experiment [5], 62 nM. For the same molecule, the pIC50 in experiment [3] was 8.89; on Protease it was 9.77; in experiment [4] it was 8.66.

For `Cc1nsc(C)c1CNC(=O)[C@H]1N(C(=O)[C@@H](O)C[C@@H](Cc2ccccc2)C(=O)N[C@H]2c3ccccc3OC[C@H]2O)COC12CCCC2`, the IC95 in experiment [2] came to 250 nM; in experiment [1], 125 nM; in experiment [5], 250 nM. The pIC50 in experiment [3] is 9.10; against Protease, 10.00; in experiment [4], 9.40.

Turning to `Cc1cccc(C)c1CNC(=O)[C@H]1N(C(=O)[C@@H](O)C[C@@H](Cc2ccccc2)C(=O)N[C@H]2c3ccccc3OC[C@H]2O)CSC1(C)C`, the IC95 in experiment [1] was 15 nM. Moreover, the pIC50 on Protease is 10.52.

As for `Cc1noc(C)c1CNC(=O)[C@H]1N(C(=O)[C@@H](O)C[C@@H](Cc2ccccc2)C(=O)N[C@H]2c3ccccc3OC[C@H]2O)COC12CCCC2`, the IC95 stood at 500 nM in experiment [2], 250 nM in experiment [1] and 1000 nM in experiment [5]. The negative logarithm of the IC50 (pIC50) in experiment [3] was 8.49; against Protease, 9.70; in experiment [4], 8.82.

As for `O=C(N[C@H]1c2ccccc2OC[C@H]1O)[C@H](Cc1ccccc1)C[C@H](O)C(=O)N1COC2(CCCC2)[C@H]1C(=O)NCc1c(Cl)cccc1Cl`, the IC95 amounted to 250 nM in experiment [2], 62.5 nM in experiment [1] and 500 nM in experiment [5]. The pIC50 in experiment [3] is 9.00; at Protease, 9.96; in experiment [4], 9.30.

For the molecule `Cc1cccc(C)c1CNC(=O)[C@@H]1CCCCN1C(=O)[C@@H](O)C[C@@H](Cc1ccccc1)C(=O)N[C@H]1c2ccccc2OC[C@H]1O`, the IC95 in experiment [1] is 1000 nM. Also, the negative logarithm of the IC50 (pIC50) at Protease was 7.38.

`Cc1cccc(C)c1CNC(=O)[C@H]1N(C(=O)[C@@H](O)C[C@@H](Cc2ccccc2)C(=O)N[C@H]2c3ccccc3OC[C@H]2O)CCC1(C)C`: the figures for the IC95 in experiment [2], in experiment [1] and in experiment [5] were 500 nM, 15 nM and 31 nM, respectively. In addition, the pIC50 in experiment [3] is 9.40; against Protease it was 9.85; in experiment [4] it was 8.80.

Regarding `Cc1cccc(C)c1CNC(=O)[C@H]1N(C(=O)[C@@H](O)C[C@@H](Cc2ccccc2)C(=O)N[C@H]2c3ccccc3OC[C@H]2O)COC12CCCC2`, the IC95 in experiment [2] was 125 nM; in experiment [1], 8 nM; in experiment [5] it was 62 nM. The pIC50 in experiment [3] was 9.30; on Protease, 10.00.

In the case of `CC(C)(C)NC(=O)[C@@H]1CN(Cc2cccnc2)CCN1C[C@@H](O)CC(Cc1ccccc1)C(=O)N[C@H]1c2ccccc2C[C@H]1O` (single isomer, unassigned), the IC95 is 1000 nM in experiment [2], 45 nM in experiment [1] and 890 nM in experiment [5]. Also, the negative-log IC50 (pIC50) in experiment [3] was 7.36; in experiment [4], 7.21.

One may read the pIC50 as the negative decadic logarithm of the IC50, by convention in mol/L.
